Data: patent US4405642A, “Method for treatment or prophylaxis of cardiac disorders” (American Hospital Supply Corporation, priority 1980, dated 1983)
Counter-ions that a name gives are not always drawn.

Assays:
[1] = Disappearance in vitro in dog liver homogenate; type: in vitro ADME; details: 50 μg test compound, 33% (w/v) liver homogenate, 37° C., read-out: T1/2 Dog Liver Homogenate
Description: (§1) The rate of disappearance of a compound is expressed as the half-life (T1/2), which is the time period in which one half of the initial amount of compound tested disappears. […] The samples were incubated in a Dubnoff shaking metabolic incubator for 2.5, 5.0, 10.0, 20.0, 30.0 and 60.0 minutes at 37° C. At the designated time periods, the test mixtures were removed from the incubator and transferred to a 0° C. ice bath. Acetonitrile (2 ml) was immediately added and the mixtures were mixed to stop enzymatic hydrolysis. Zero time samples were prepared by adding 2 ml. of acetonitrile to denature the proteins prior to addition of the test compounds. After centrifugation to sediment denatured proteins, 2 ml. of the supernatant was removed and analyzed by high pressure liquid chromatography, using a mobile phase of 60% acetonitrile/40% 0.05 m sodium phosphate buffer (pH 6.6), a U.V. detector and Waters® μ Bondapak Phenyl column. The half life of each test compound was determined graphically by plotting the decrease in concentration as a function of time.

[2] = Disappearance in vitro in dog whole blood; type: in vitro ADME; details: 50 μg test compound, 37° C., read-out: T1/2 Dog Whole Blood
Description: as §1

[3] = tested on: heart rate response to isoproterenol; assay: Duration of beta-blockade in vivo, anesthetized dogs, 40-minute infusion; set-up: species or system dog; details: for Recovery Times 50%: 50% recovery of heart rate after 40-minute infusion; for Recovery Times 50% / Recovery Times 80% / Recovery Times 100%: normalized to 50% inhibition, dog; for Recovery Times 80%: 80% recovery of heart rate after 40-minute infusion; for Recovery Times 100%: 100% recovery of heart rate after 40-minute infusion; for ED50: Canis lupus familiaris, iv, 40 min, read-out: Potency
Description: (§2) The duration of beta-blockade was determined in vivo using pentobarbitalanesthetized dogs instrumented for measurement of heart rate using a Beckman® cardiotachometer triggered electronically by a phasic aortic blood pressure signal. Both vagus nerves were severed in the cervical region and the animals were mechanically ventilated. Two experimental designs were used. The first employed a 40-minute infusion of test compound and the second used a 3-hour infusion of test compound. In the 40-minute model, isoproterenol was infused into a foreleg vein at the rate of 0.5 μg/kg/min to induce a beta-receptor mediated tachycardia. Various doses of test compound where then infused into a femoral vein over a period of 40 minutes. This infusion was then terminated and recovery from blockade was quantitated. […] This cumulative dose is expressed as mg/kg and is an indication of potency. The time period required for 80% recovery of heart rate for each dose of test drug was also measured to quantitate duration of action. […] Test compounds were dissolved in 0.9% NaCl and infused at a rate of 0.05 ml/kg/min or less. In the 3-hour infusion model, bolus doses of isoproterenol (0.5 μg/kg) were used to assess the degree of beta-blockade and recovery from beta-blockade after termination of the infusion. The doses were spaced at 10-minute intervals and were given before, during and following the infusion of test compounds. The infusion rate was adjusted so that at the end of the 3-hour infusion period the degree of isoproterenol inhibition averaged about 50% of control.

[4] = Disappearance in vitro in human whole blood; type: in vitro ADME; details: 50 μg test compound, 37° C., read-out: T1/2 Human Whole Blood
Description: as §1

[5] = tested on: heart rate response to isoproterenol; assay: Duration of beta-blockade in vivo, anesthetized dogs, 3-hour infusion; details: dog; for % I (Percent inhibition of heart rate response to isoproterenol): end of 3-hour infusion, bolus isoproterenol 0.5 μg/kg; for 80% Recovery Time: after termination of 3-hour infusion
Description: as §2

[6] = biological target: T1, β-adrenergic receptors (guinea pig tracheal strips) (Cavia porcellus, UniProt Q8K4Z4); assay: β-blocking activity in vitro, guinea pig tracheal strips (tension response to isoproterenol); type: cell-based; details: vs isoproterenol, 60 minute incubation, 37° C.; for Kb: read-out: pA2 Trachea (converted)
T1 construct: from tissue; host or cells: guinea pig trachea (isolated spiral strips)
Description: (§3) Each tissue was suspended between a fixed glass rod and a Statham® Universal Transducer connected to a Beckman® recorder. Atria were allowed to beat spontaneously under a loading tension of approximately 0.5 gm. Instrinsic depressant or stimulant activity was determined for each compound by progressively increasing concentrations in the tissue baths at 60-minute intervals. Tissues were not washed between increments. The maximum concentration showing little or no cardiodepressant activity was chosen for blockade experiments. Changes in rate in response to isoproterenol were measured in the absence and presence of test compounds. Spiral strips of guinea pig trachea were suspended under 5 gm resting tension and incubated with phentolamine, tropolone and cocaine. Active tension was generated by addition of carbachol (3.0×10^-7 M) and decreases in tension in response to isoproterenol were quantitated. Cumulative concentration-response curves were produced with isoproterenol both before and after 60 minute incubation of test compounds with atria and trachea. The blocking potency of test compounds was estimated by computing pA2 values (-log […]) by the method of Furchgott, The Pharmacological Differentiation of Adrenergic Receptors, Ann. […] The degree of cardioselectivity was estimated from the ratio, KB trachea/KB atria (10^(pA.sbsp.2^atria-pA.sbsp.2^trachea)). A ratio greater than one indicates cardioselectivity. Test drugs were dissolved in distilled water and added to the bath (30 ml) in a volume of 10 or 100 μl.

[7] = biological target: T2, β-adrenergic receptors (guinea pig right atria) (Cavia porcellus, UniProt H0W3H1); assay: β-blocking activity in vitro, guinea pig right atria (rate response to isoproterenol); type: cell-based; details: vs isoproterenol, guinea pig right atria, 60 minute incubation, 37° C.; for Kb: read-out: pA2 Atria (converted)
T2 construct: Atria were allowed to beat spontaneously under a loading tension; from tissue; host or cells: guinea pig right atria (isolated, spontaneously beating)
Description: as §3

[8] = tested on: β-adrenergic receptors (guinea pig right atria); assay: as above; type: cell-based; details: ratio from pA2 atria and trachea; greater than one indicates cardioselectivity
Description: as §3

T2 sequence (H0W3H1 1-470): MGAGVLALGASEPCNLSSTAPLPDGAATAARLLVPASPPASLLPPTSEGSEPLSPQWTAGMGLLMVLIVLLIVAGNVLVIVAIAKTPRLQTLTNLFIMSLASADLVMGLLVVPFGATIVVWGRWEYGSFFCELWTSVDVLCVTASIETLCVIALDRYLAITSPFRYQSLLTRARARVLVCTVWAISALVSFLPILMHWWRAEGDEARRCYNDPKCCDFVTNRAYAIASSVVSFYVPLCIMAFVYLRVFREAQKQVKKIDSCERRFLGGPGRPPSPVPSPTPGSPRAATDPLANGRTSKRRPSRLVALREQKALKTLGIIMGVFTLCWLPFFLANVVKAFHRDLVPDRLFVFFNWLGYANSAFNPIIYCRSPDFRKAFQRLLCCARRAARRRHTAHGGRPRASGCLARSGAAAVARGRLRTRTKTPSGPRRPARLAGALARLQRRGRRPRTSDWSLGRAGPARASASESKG
T1 sequence (Q8K4Z4 whole entry): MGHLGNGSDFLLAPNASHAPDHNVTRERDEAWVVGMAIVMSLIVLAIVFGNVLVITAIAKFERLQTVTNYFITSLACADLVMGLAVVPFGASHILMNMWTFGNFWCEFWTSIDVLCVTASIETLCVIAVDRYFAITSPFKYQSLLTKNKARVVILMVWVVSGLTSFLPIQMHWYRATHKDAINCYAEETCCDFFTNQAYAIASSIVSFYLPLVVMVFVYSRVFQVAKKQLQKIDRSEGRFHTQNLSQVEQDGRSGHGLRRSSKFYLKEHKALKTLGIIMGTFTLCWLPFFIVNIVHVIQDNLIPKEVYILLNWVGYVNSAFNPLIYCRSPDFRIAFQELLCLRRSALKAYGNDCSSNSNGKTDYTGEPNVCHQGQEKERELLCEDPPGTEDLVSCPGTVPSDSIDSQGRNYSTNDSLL

Structure (SMILES) | half-life [1] | half-life [2] | Recovery Times 50% [3] | Recovery Times 80% [3] | Recovery Times 100% [3] | ED50 [3] | half-life [4] | % I (Percent inhibition of heart rate response to isoproterenol) [5] | Kb [6] | Kb [7] | Cardioselectivity KB (Trachea)/KB (Atria) [8] | 80% Recovery Time [5] | pA2 Trachea [6] | pA2 Atria [7]
CC(C)NCC(O)COC(=O)c1ccccc1Cl (stereo not drawn) [Example XII, [3-(Isopropylamino)-2-hydroxy]propyl 2-chlorobenzoate hydrochloride] | 12 ± 4 min | 28 ± 15 min | 19 min | 30 min | 51 min | 1.75 mg/kg | 1.7 ± 0.6 min |  |  |  |  |  |  | 
CC(C)(C)NCC(O)COC(=O)c1ccccc1Cl (stereo not drawn) [XXXVIII] | 68 ± 4 min | 30 ± 2 min |  |  |  |  | 6 ± 2 min | 67% |  |  |  |  |  | 
Cc1ccc(C(=O)OCC(O)CNC(C)C)cc1 (stereo not drawn) [Example X] | 10 ± 4 min | 67 ± 24 min | 11.0 min | 20 ± 2 min | 30.0 min | 3.1 ± 0.3 mg/kg | 6 min |  | 158 nM | 158 nM | 1 |  |  | 
COc1ccc(C(=O)OCC(O)CNC(C)C)cc1 (stereo not drawn) [XXIII] | 37 ± 20 min | 150 ± 30 min |  |  |  |  | 55 ± 5 min | 67 ± 6% | 501 nM | 1000 nM |  | > 60 min |  | 
CC(C)(C)NCC(O)COC(=O)c1ccccc1F (stereo not drawn) [XXXIX] | 17 ± 7 min | 6 ± 2 min |  |  |  |  | 1.4 ± 1 min | 60 ± 2% | 10 nM | 158 nM |  | 17 ± 3 min |  | 
Cc1ccccc1C(=O)OCC(O)CNC(C)C (stereo not drawn) [XVII] | 147 ± 69 min | > 180 min |  |  |  |  | > 180 min | 83% |  |  |  | > 60 min |  | 
CC(C)NCC(O)COC(=O)c1ccccc1 (stereo not drawn) [Example VI, [3-(Isopropylamino)-2-hydroxy]propyl Benzoate Hydrochloride] | 8 ± 3.5 min | 6.8 ± 2 min | 7 ± 2 min | 14 ± 3 min | 21 ± 3 min | 3.4 ± 1.1 mg/kg | 2.3 ± 0.6 min | 63 ± 8% |  |  |  | 26 ± 8 min | 7.2 | 6.3
